Format in all cases: cell-based
In one assay the test system is N87 cells. In words: Cell proliferation experiment, N87 cells. The conditions noted are these: Cell Titer-Glo, read-out: Cell antiproliferation data N87. As for the experimental part: (§1) Reagents: RPMI-1640 medium, McCoy's 5A medium, IMDM medium, MEM medium, L-15 medium, fetal bovine serum, Penicillin-Streptomycin double antibody, trypsin, etc., 2-mercaptoethanol, NEAA, pyruvate, etc.
(§2) The test cells were cultured in conventional ways, and the cells should be passed for at least 2 generations before plating.
(§3) 25 μL of 1000 HT-29, N87, SKOV3, Colo-205 and MDA-MB-231 cells were inoculated in a 384-well plate with black wall and transparent bottom, 25 μL of different concentrations of compounds were added, and the cells were cultured overnight under condition of 37° C. and 5% CO2.
(§4) 25 μL of 1500 H82 and H69 cells were inoculated in a 384-well plate with black wall and transparent bottom, 25 μL of different concentrations of compounds were added, and the cells were cultured for 72 hours under condition of 37° C. and 5% CO2. The 384-well plate was equilibrated at room temperature, 25 μL of Cell Titer-Glo® reagent was added to each well, and the cells were lysed by shaking on a horizontal shaking shaker for 2 minutes, incubated at room temperature for 10 minutes to stabilize the luminescent signal, and then the chemiluminescent signal was detected using Envision.
(§5) All cells were subjected to IC50 test for corresponding samples.
(§6) The fluorescence intensity of each well was detected using the Alarm blue method, and EC50 was calculated.
(§7) IC50 was calculated according to the following formula:
(§8) [formula] • wherein, Min, Max and Slope represent the minimum, maximum and slope respectively.

The subject of a further assay is SKOV3 cells. In words: Cell proliferation experiment, SKOV3 cells. As to conditions: Homo sapiens, SK-OV-3, SKOV3 cells, Cell Titer-Glo; read-out: Cell antiproliferation data SKOV3. As for the experimental part: as §1, §2, §3, §4, §5, §6, §7, §8
(ATP-based viability assays read luminescence as a measure of living cells.)

Another assay deals with H69 cells. Kind of assay: Cell proliferation experiment, H69 cells. As to conditions: Homo sapiens, NCI-H69, 72 h, cultured for 72 hours, Cell Titer-Glo, read-out: Cell antiproliferation data H69. As for the experimental part: as §1, §2, §4
(§9) All cells were subjected to IC50 test for corresponding samples. […]
as §7, §8

The next assay concerns Colo-205 cells. Kind of assay: Cell proliferation experiment, Colo-205 cells. The conditions noted are these: Homo sapiens, COLO 205, Colo-205 cells, Cell Titer-Glo; read-out: Cell antiproliferation data Colo-205. How it is done:
as §1, §2, §3, §4, §5, §6, §7, §8

The test system of a further assay is H82 cells. In words: Cell proliferation experiment, H82 cells. The conditions noted are these: Homo sapiens, NCI-H82, cultured for 72 hours, Cell Titer-Glo, read-out: Cell antiproliferation data H82. As for the experimental part:
as §1, §2, §4, §9, §7, §8

The next assay concerns MDA-MB-231 cells. Kind of assay: Cell proliferation experiment, MDA-MB-231 cells. As to conditions: Homo sapiens, Cell Titer-Glo, read-out: Cell antiproliferation data MDA-MB-231. How it is done:
as §1, §2, §3, §4, §5, §6, §7, §8

Another assay concerns HT-29 cells. Kind of assay: Cell proliferation experiment, HT-29 cells. The conditions noted are these: Homo sapiens, Cell Titer-Glo, read-out: Cell antiproliferation data HT-29. As for the experimental part: as §1, §2, §3, §4, §5, §6, §7, §8

pIC50: −log10 of the molar value.

Consider `CC(C)n1cnc2c(NCc3ccc(-c4ccccc4)cc3)nc(N3CCCCC3)nc21` [UB-008, N-([1,1′-biphenyl]-4-ylmethyl)-9-isopropyl-2-(Piperidin-1-yl)-9H-purin-6-amine], for which the pIC50 with N87 cells, with SKOV3 cells, with H69 cells, in the assay on Colo-205 cells, in the assay on H82 cells and with MDA-MB-231 cells was less than 6.52 each time. In the assay with HT-29 cells, the pIC50 was less than 6.52.
Regarding `CC(C)n1cnc2c(NCc3ccc(-c4ccccc4)cc3)nc(N3CCC[C@H](N)C3)nc21` [UB-012, (S)-N-([1,1′-biphenyl]-4-ylmethyl)-2-(3-aminopiperidin-1-yl)-9-isopropyl-9H-purin-6-amine], the pIC50 in the assay on N87 cells is not below 7.00; with SKOV3 cells, 6.52 to 7.00; in the assay with H69 cells, 6.52 to 7.00; with Colo-205 cells, not below 7.00; with H82 cells it was not below 7.00; in the assay with MDA-MB-231 cells, not below 7.00. Also, the pIC50 in the assay on HT-29 cells is not below 7.00.
Turning to `CC(C)n1cnc2c(NCc3ccc(-c4ccccc4)cc3)nc(N3CCOCC3)nc21` [UB-009, N-([1,1′-biphenyl]-4-ylmethyl)-9-isopropyl-2-morpholino-9H-purin-6-amine], the pIC50 in the assay on N87 cells, in the assay with SKOV3 cells, in the assay on H69 cells, in the assay on Colo-205 cells, in the assay on H82 cells and in the assay on MDA-MB-231 cells was less than 6.52 throughout. Besides, the pIC50 with HT-29 cells is less than 6.52.
On to `CC(C)n1cnc2c(NCc3ccc(-c4ccccc4)cc3)nc(N3CCC(N)CC3)nc21` [UB-017, N-([1,1′-biphenyl]-4-ylmethyl)-2-(4-amino-piperidin-1-yl)-9-isopropyl-9H-purin-6-amine], for which the pIC50 in the assay on N87 cells was not below 7.00; in the assay on SKOV3 cells, 6.52 to 7.00; with H69 cells, 6.52 to 7.00; in the assay on Colo-205 cells it was 6.52 to 7.00; in the assay with H82 cells it was 6.52 to 7.00; in the assay with MDA-MB-231 cells, not below 7.00. In addition, the pIC50 in the assay with HT-29 cells was not below 7.00.
Take `CC(C)n1cnc2c(NCc3ccc(-c4ccccc4)cc3)nc(N3CCN(C)CC3)nc21` [UB-011, N-([1,l′-biphenyl]-4-ylmethyl)-9-isopropyl-2-(4-methylpiperazin-1-yl)-9H-purin-6-amine]: the pIC50 was 6.52 to 7.00 in the assay on N87 cells; less than 6.52 in the assay with SKOV3 cells; less than 6.52 in the assay on H69 cells; less than 6.52 with Colo-205 cells; 6.52 to 7.00 in the assay with H82 cells; 6.52 to 7.00 in the assay with MDA-MB-231 cells. The pIC50 in the assay with HT-29 cells is 6.52 to 7.00.
With `CC(C)n1cnc2c(NCc3ccc(-c4ccccc4)cc3)nc(N3CCC[C@@H](N)C3)nc21` [UB-013, (R)-N-([1,1′-biphenyl]-4-ylmethyl)-2-(3-aminopiperidin-1-yl)-9-isopropyl-9H-purin-6-amine], the pIC50 with N87 cells is not below 7.00; with SKOV3 cells, 6.52 to 7.00; with H69 cells it was 6.52 to 7.00; in the assay on Colo-205 cells, not below 7.00; in the assay on H82 cells, not below 7.00; in the assay on MDA-MB-231 cells, not below 7.00. In addition, the pIC50 in the assay with HT-29 cells was not below 7.00.
As for `CC(C)n1cnc2c(NCc3ccc(-c4ccccc4)cc3)nc(N3CCNCC3)nc21` [UB-010, N-([1,1′-biphenyl]-4-ylmethyl)-9-isopropyl-2-(piperazin-1-yl)-9H-purin-6-amine], the pIC50 in the assay on N87 cells is not below 7.00; in the assay with SKOV3 cells, not below 7.00; in the assay with H69 cells it was 6.52 to 7.00; in the assay on Colo-205 cells it was not below 7.00; in the assay on H82 cells, not below 7.00; in the assay on MDA-MB-231 cells it was not below 7.00. Besides, the pIC50 in the assay on HT-29 cells is not below 7.00.
Consider `CC(C)n1cnc2c(NCc3ccc(-c4ccccc4)cc3)nc(N[C@@H]3CCCNC3)nc21` [UB-014, (R)-N6-([1,1′-biphenyl]-4-ylmethyl)-9-isopropyl-N2-(Piperidin-3-yl)-9H-purin-2,6-diamine], for which the pIC50 with N87 cells was not below 7.00; in the assay with SKOV3 cells it was 6.52 to 7.00; with H69 cells, 6.52 to 7.00; in the assay with Colo-205 cells, not below 7.00; in the assay on H82 cells, not below 7.00; with MDA-MB-231 cells, not below 7.00. Also, the pIC50 with HT-29 cells is not below 7.00.
For the compound `CC(C)n1cnc2c(NCc3ccc(-c4ccccc4)cc3)nc(N[C@H]3CCCNC3)nc21` [UB-015, (S)-N6-([1,1′-biphenyl]-4-ylmethyl)-9-isopropyl-N2-(Piperidin-3-yl)-9H-purin-2,6-diamine], the pIC50 is not below 7.00 in the assay on N87 cells; 6.52 to 7.00 with SKOV3 cells; 6.52 to 7.00 in the assay with H69 cells; not below 7.00 in the assay on Colo-205 cells; not below 7.00 in the assay on H82 cells; not below 7.00 in the assay with MDA-MB-231 cells. Also, the pIC50 in the assay with HT-29 cells is not below 7.00.

For the origin of these results see patent US20260152501A1, “CYCLIN MODULATOR” (EUBULUS BIOTHERAPEUTICS (HONG KONG) LIMITED, priority 2022, published 2026).
